Experimental data published in PubChem BioAssay (NCI).
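48-hour exposure; five concentrations; linearly interpolated endpoints. Here, GI50 denotes the concentration required for 50% inhibition of growth. TGI: total growth inhibition.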

Tests used:
Assay in all cases: growth of human tumour cells (NCI), 48 h
MCF7 breast = tested on: MCF7 breast
BT-549 breast = tested on: BT-549 breast
HCT-15 colon = tested on: HCT-15 colon
HL-60(TB) leukemia = tested on: HL-60(TB) leukemia
M14 melanoma = tested on: M14 melanoma
LOX IMVI melanoma = tested on: LOX IMVI melanoma
SK-MEL-28 melanoma = tested on: SK-MEL-28 melanoma
KM12 colon = tested on: KM12 colon
RXF 393 renal = tested on: RXF 393 renal
COLO 205 colon = tested on: COLO 205 colon
T-47D breast = tested on: T-47D breast
SF-295 CNS = tested on: SF-295 CNS
DU-145 prostate = tested on: DU-145 prostate
A498 renal = tested on: A498 renal
786-0 renal = tested on: 786-0 renal
MDA-MB-231 breast = tested on: MDA-MB-231 breast

| Compound | TGI (MCF7 breast) | TGI (BT-549 breast) | TGI (HCT-15 colon) | TGI (HL-60(TB) leukemia) | TGI (M14 melanoma) | TGI (LOX IMVI melanoma) | TGI (SK-MEL-28 melanoma) | TGI (KM12 colon) | TGI (RXF 393 renal) | TGI (COLO 205 colon) | TGI (T-47D breast) | TGI (SF-295 CNS) | TGI (DU-145 prostate) | TGI (A498 renal) | TGI (786-0 renal) | TGI (MDA-MB-231 breast) | GI50 (BT-549 breast) | GI50 (RXF 393 renal) | GI50 (MDA-MB-231 breast) |
| --- | --- | --- | --- | --- | --- | --- | --- | --- | --- | --- | --- | --- | --- | --- | --- | --- | --- | --- | --- |
| Cc1ccsc1/C=N/Nc1ccc2ccccc2n1 | 32.3 µM | > 100 µM | > 100 µM | 40.1 µM | > 100 µM | > 100 µM | > 100 µM | > 100 µM | 89.8 µM | > 100 µM | > 100 µM | 31 µM | > 100 µM | > 100 µM | > 100 µM |  |  |  |  |
| O=C(/C=C/C=C/c1ccccc1)c1ccc2c(c1)CCCC2 | > 100 µM | 77.4 µM | > 100 µM |  | > 100 µM | > 100 µM | > 100 µM | > 100 µM |  | > 100 µM | 93.9 µM | > 100 µM | 92.3 µM | > 100 µM | > 100 µM | > 100 µM |  |  |  |
| CCOC(=O)C1=C(N)Oc2ccc(Br)cc2C1C(C#N)C(=O)OCC (configuration not stated) | 89.4 µM |  | 40.9 µM | > 100 µM | > 100 µM | 33.1 µM | 32.4 µM | 62.7 µM | 22 µM | 42.3 µM | 53.1 µM | > 100 µM | > 100 µM | > 100 µM | 70.1 µM | 55.9 µM |  |  |  |
| CSc1nncc2[nH]c(C)nc12 | > 100 µM | > 100 µM | > 100 µM | > 100 µM | > 100 µM | > 100 µM | > 100 µM | > 100 µM |  | > 100 µM | > 100 µM | > 100 µM |  | > 100 µM | > 100 µM | > 100 µM |  |  |  |
| O=P(O)(Cc1ccccc1)c1ccccc1-c1ccccc1 | > 100 µM | > 100 µM | > 100 µM | > 100 µM | > 100 µM | > 100 µM | > 100 µM | > 100 µM | > 100 µM | > 100 µM | > 100 µM | > 100 µM | > 100 µM |  | > 100 µM | > 100 µM |  |  |  |
| CC(C)(C)C(=O)OC(N)/C=C/c1ccccc1 (configuration not stated) | > 100 µM | > 100 µM | > 100 µM | > 100 µM | > 100 µM |  | > 100 µM | > 100 µM | > 100 µM | > 100 µM | > 100 µM | > 100 µM |  | > 100 µM | > 100 µM | > 100 µM |  |  |  |
| Cc1c(CNc2ccc(C(=O)NC(CC(=O)O)C(=O)O)cc2)ccc2nc(N)nc(N)c12 (configuration not stated) | > 1000 µM | > 1000 µM | > 1000 µM | > 1000 µM | > 1000 µM | > 1000 µM |  | > 1000 µM | > 1000 µM |  |  | > 1000 µM | > 1000 µM | > 1000 µM | > 1000 µM | > 1000 µM | > 1000 µM | > 1000 µM | > 1000 µM |
| O=C(NC(CO)Cc1ccc(Oc2cc(CC(CO)NC(=O)OCc3ccccc3)ccc2OC(=O)OCc2ccccc2)cc1)OCc1ccccc1 (configuration not stated) | 26.8 µM | 38.7 µM | > 100 µM | 41.7 µM | 55.1 µM | 32.9 µM | 42.9 µM | 50.4 µM |  | 36 µM | 23.1 µM | 35.2 µM | 51.3 µM | 50.2 µM | > 100 µM |  |  |  |  |
